pIC50: −log10 of the molar value. Counter-ions that a name gives are not always drawn.
target: T1, KCNH2-3.1 (Kv11.1-3.1 containing potassium channel; hERG 3.1) (Homo sapiens, UniProt Q12809); assay: KCNH2-3.1 inhibition ion (thallium) flux assay, FluxOR; assay type: cell-based; conditions: U2OS cells transduced with hERG 3.1 Bacmam virus, 5 minutes compound incubation, read-out: Activity range (IC50)
T1 construct: expressed in transfected cells; host or cells: U2OS cells transduced with hERG 3.1 BacMam virus
Excerpt: The ability of the presently disclosed compounds to inhibit the activity of the ion channel produced from the KCNH2-3.1 transcript may be determined by methods known to those in the art for measuring ion channel inhibition. One method for measuring ion channel activity uses a thallium flux assay (Titus et al., 2009; FluxOR™ kit from Life Technologies). This assay measures the passage of thallium through the channel as indicated by a thallium sensitive dye loaded into the cell.
The ability of compounds to inhibit the activity of KCNH2-3.1 was determined by an ion flux assay as described (Titus et al, 2009, which is incorporated herein by reference). U2OS cells were cultured in media containing DMEM, 10% FBS, and Penicillin/Streptomycin. Cells were grown to 90% confluency then washed with PBS and pelleted. Cells were resuspended in DMEM containing 2% FBS and incubated with hERG or hERG 3.1 Bacmam virus for 4 hours at room temperature in the dark. Cells were plated onto clear-bottom PDL coated 1536 well plates and allowed to grow 16-20 hours at 37° C. FluxOr loading buffer containing 10mM Red Dye #40 was added to each well and incubated for 45 minutes. Plates were loaded and analyzed in Hamamatsu FDSS (7000) using a two-addition protocol. In the first addition step of the assay, compounds to be tested and the cell compound mixture were incubated together for 5 minutes before addition of FluxOr stimulus buffer as the second addition step. Channel activity was detected and analyzed via the slope of fluorescence intensities versus the time of first 30 s after compound addition was calculated from the kinetic results. The signal-to-basal ratio was calculated as the slope of DMSO solvent controls in the stimulated group divided by the slope of an unstimulated group. The concentration responses of compound inhibition from the experiments were analyzed with Prism software (GraphPad, San Diego, Calif., USA).
As the data herein indicate, a broad variety of compounds of formula (I), formula (II), or formula (III) were found effective as KCNH2-3.1 containing potassium channel inhibitors at low concentrations. […] In the Table 1 below, a single plus (+) is associated with an IC50 of from about 2-10 μM; two plus signs (++) is associated with an IC50 from about 500 nM to about 2 μM; and three plus signs (+++) is associated with an IC50 less than about 500 nM.

T1 sequence (Q12809 1-1063 isoform Q12809-7): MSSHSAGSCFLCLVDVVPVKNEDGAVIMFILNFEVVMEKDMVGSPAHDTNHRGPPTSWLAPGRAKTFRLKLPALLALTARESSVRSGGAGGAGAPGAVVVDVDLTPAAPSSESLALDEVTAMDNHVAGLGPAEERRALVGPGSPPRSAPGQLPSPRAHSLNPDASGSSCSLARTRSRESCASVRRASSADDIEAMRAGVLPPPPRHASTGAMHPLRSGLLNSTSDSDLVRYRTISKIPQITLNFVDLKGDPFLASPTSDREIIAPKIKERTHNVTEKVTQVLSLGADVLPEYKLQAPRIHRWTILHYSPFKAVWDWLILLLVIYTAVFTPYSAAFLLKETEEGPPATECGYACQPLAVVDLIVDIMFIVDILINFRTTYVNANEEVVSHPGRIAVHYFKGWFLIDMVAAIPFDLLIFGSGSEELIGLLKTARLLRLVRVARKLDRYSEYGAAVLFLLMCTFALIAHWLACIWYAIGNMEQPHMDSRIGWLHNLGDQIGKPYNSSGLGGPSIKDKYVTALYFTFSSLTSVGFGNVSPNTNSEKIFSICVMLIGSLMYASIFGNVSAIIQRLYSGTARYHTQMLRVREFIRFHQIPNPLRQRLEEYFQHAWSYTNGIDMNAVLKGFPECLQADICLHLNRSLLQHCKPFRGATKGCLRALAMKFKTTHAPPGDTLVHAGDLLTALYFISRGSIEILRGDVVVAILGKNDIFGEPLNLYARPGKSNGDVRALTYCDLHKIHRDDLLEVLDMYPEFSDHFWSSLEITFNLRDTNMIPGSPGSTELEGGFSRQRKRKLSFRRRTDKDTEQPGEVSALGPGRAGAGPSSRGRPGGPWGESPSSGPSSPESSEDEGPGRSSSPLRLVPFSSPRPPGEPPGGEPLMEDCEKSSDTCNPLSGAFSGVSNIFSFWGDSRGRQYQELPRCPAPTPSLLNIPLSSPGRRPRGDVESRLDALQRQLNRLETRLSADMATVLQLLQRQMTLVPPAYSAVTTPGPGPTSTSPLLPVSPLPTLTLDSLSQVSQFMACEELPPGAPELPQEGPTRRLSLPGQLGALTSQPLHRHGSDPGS

Compound	pIC50
CC1CC(c2ccccc2)CCN1CC(=O)Nc1ccc(N2CCCCCC2)cc1 (mixture of isomers) [Example 19, N-[4-(azepan-1-yl)phenyl]-2-(2-methyl-4-phenyl-1-piperidyl)acetamide]	5.70 to 6.30
O=C(CN1CCCCC1)Nc1ccc(N2CCCOCC2)cc1 [Example 1, N-[4-(1,4-oxazepan-4-yl)phenyl]-2-(1-piperidyl)acetamide hydrochloride]	5.00 to 5.70
CC1CCN(c2ccc(NC(=O)CN3CC4CCC3CC4)cn2)CC1 [Example 3, 2-(8-azabicyclo[3.2.1]octan-8-yl)-N-16-(4-methyl-1-piperidyl)-3-pyridyljacetamide]	5.70 to 6.30
O=C(CN1CCCOCC1)Nc1ccc(N2CCCCCC2)cc1 [Example 7, N-[4-(azepan-1-yl)phenyl]-2-(1,4-oxazepan-4-yl)acetamide hydrochloride]	5.00 to 5.70
O=C(CN1CCCC(F)C1)Nc1ccc(N2CCCCCC2)cc1 (stereo not shown) [Example 8, N-[4-(azepan-1-yl)phenyl]-2-(3-fluoro-1-piperidyl)acettamide]	5.70 to 6.30
O=C(CN1CCCCC1C(F)(F)F)Nc1ccc(N2CCCCCC2)cc1 (stereo not shown) [Example 9, N-[4-(azepan-1-yl)pheny]-2-[2-(trifluoromethyl)-1-piperidyl]acetamide]	5.70 to 6.30
O=C(CN1CCC(CO)CC1)Nc1ccc(N2CCCCCC2)cc1 [Example 10, N-[4-(azepan-1-yl)phenyl]-2-[4-(hydroxymethyl)-1-piperidyl]acetamide]	5.00 to 5.70
O=C(CN1CCCCC1CO)Nc1ccc(N2CCCCCC2)cc1 (stereo not shown) [Example 11, N-[4-(azepan-1-yl)phenyl]-2-[2-(hydroxymethyl)-1-piperidyl]acetamide]	5.00 to 5.70
CC(C)(O)C1CCN(CC(=O)Nc2ccc(N3CCCCCC3)cc2)CC1 [Example 12, N-[4-(azepan-1-yl)phenyl]-2-[4-(1-hydroxy-1-methyl-ethyl)-1-piperidyl]acetamide]	5.00 to 5.70
O=C(CN1CCC(O)(c2ccc(Cl)cc2)CC1)Nc1ccc(N2CCCCCC2)cc1 [Example 13, N-[4-(azepan-1-yl)phenyl]-2-[4-(4-chlorophenyl)-4-hydroxy-1-piperidyl]acetamide]	> 6.30
O=C(CN1CCCC1)Nc1ccc(N2CCCCCC2)cc1 [Example 14, N-[4-(azepan-1-yl)phenyl]-2-pyrrolidin-1-yl-acetamide hydrochloride]	5.00 to 5.70
CC1CCCN(CC(=O)Nc2ccc(N3CCCCCC3)cc2)C1 (stereo not shown) [Example 15]	5.00 to 5.70
O=C(CN1CCCCC1c1ccc(Cl)cc1)Nc1ccc(N2CCCCCC2)cc1 (stereo not shown) [Example 16, N-[4-(azepan-1-yl)phenyl]-2-[2-(4-chlorophenyl)-1-piperidyl]acetamide]	5.70 to 6.30
O=C(CN1CCCC(c2cccc(Cl)c2)C1)Nc1ccc(N2CCCCCC2)cc1 (stereo not shown) [Example 17, N-[4-(azepan-1-yl)phenyl]-2-[3-(3-chlorophenyl)-1-piperidyl]acetamide]	> 6.30
N#Cc1cccc(C2CCN(CC(=O)Nc3ccc(N4CCCCCC4)cc3)CC2)c1 [Example 18, N-[4-(azepan-1-yl)phenyl]-2-[4-(3-cyanophenyl)-1-piperidyl]acetamide]	> 6.30
O=C(CN1CCC(c2ccc(F)cc2)C1)Nc1ccc(N2CCCCCC2)cc1 (stereo not shown) [Example 20, N-[4-(azepan-1-yl)phenyl]-2-[3-(4-fluorophenyl)pyrrolidin-1-yl]acetamide]	5.70 to 6.30

Compound	pIC50
O=C(CN1CCCC(OCc2ccccc2)C1)Nc1ccc(N2CCCCCC2)cc1 (stereo not shown) [Example 22, N-[4-(azepan-1-yl)phenyl]-2-(3-benzyloxy-1-piperidyl)acetamide]	5.70 to 6.30
O=C(CCN1CCCCC1)Nc1ccc(N2CCCCCC2)cc1 [Example 23]	5.00 to 5.70
CC(C(=O)Nc1ccc(N2CCCCCC2)cc1)N1CCCCC1 (stereo not shown) [Example 24, N-[4-(azepan-1-yl)phenyl]-2-(1-piperidyl)propanamide]	5.00 to 5.70
O=C(CN1CCCCC1)Nc1ccc(N2CCCCCC2)nc1 [Example 25, N-[6-(azepan-1-yl)-3-pyridyl]-2-(1-piperidyl)acetamide]	5.70 to 6.30
O=C(CN1C2CCC1CC2)Nc1ccc(N2CCCCCC2)nc1 [Example 26, 2-(7-azabicyclo[2.2.1]heptan-7-yl)-N-[6-(azepan-1-yl)-3-pyridyl]acetamide]	5.70 to 6.30
O=C(CNC1CCCCC1)Nc1ccc(N2CCCCCC2)nc1 [Example 27, N-[6-(azepan-1-yl)-3-pyridyl]-2-[cyclohexylamino]acetamide]	5.00 to 5.70
CN(CC(=O)Nc1ccc(N2CCCCCC2)nc1)C1CCCCC1 [Example 28]	5.00 to 5.70
O=C(CNC1CCCCCC1)Nc1ccc(N2CCCCCC2)nc1 [Example 29, N-[6-(azepan-1-yl)-3-pyridyl]-2-(cycloheptylamino)acetamide]	5.70 to 6.30
O=C(CNc1ccccc1)Nc1ccc(N2CCCCCC2)nc1 [Example 30, 2-anilino-N-[6-(azepan-1-yl)-3-pyridyl]acetamide]	5.70 to 6.30
O=C(CNCc1ccccc1)Nc1ccc(N2CCCCCC2)nc1 [Example 31, N-[6-(azepan-1-yl)-3-pyridyl]-2-(benzylamino)acetamide]	5.00 to 5.70
O=C(CN1CC2CCC(C2)C1)Nc1ccc(N2CCCCCC2)nc1 [Example 32, 2-(3-azabicyclo[3.2.1]octan-3-yl)-N-[6-(azepan-1-yl)-3-pyridyl]acetamide]	> 6.30
O=C(CN1CCCCC1)Nc1ccc(N2CCCCCC2)cn1 [Example 34]	5.00 to 5.70
O=C(CN1CCCCC1)Nc1cnc(N2CCCCCC2)nc1 [Example 35, N-[2-(azepan-1-yl)pyrimidin-5-yl]-2-(1-piperidyl)acetamide]	5.70 to 6.30
O=C(CN1CCCCC1)Nc1ccc(N2CCCCCC2)c(F)c1 [Example 36, N-[4-(azepan-1-yl)-3-fluoro-phenyl]-2-(1-piperidyl)acetamide]	> 6.30
O=C(CN1CCCCC1)Nc1ccc(N2CCCCCC2)cc1F [Example 38, N-4-(azepan-1-yl)-2-fluoro-phenyl1-2-(1-piperidyl)acetamide]	5.00 to 5.70

— patent US20220356176A1, “Kv11.1-3.1 INHIBITING METHODS AND COMPOSITIONS” (The Johns Hopkins University, priority 2019, published 2022)
